According to patent US20080287469A1, “Phosphoinositide 3-Kinase Inhibitors for Inhibiting Leukocyte Accumulation” (priority 2005, published 2008):

Experiments:
[1] = target: P70S6K (Homo sapiens, UniProt P23443); experiment: Protein kinase/phosphatase panel: P70S6K; type: biochemical; details: inhibitor 10 μM; 100 μM ATP
[2] = target: p38 MAPK (Homo sapiens, UniProt Q16539); details: inhibitor 10 μM; reported by Sadhu et al.; cited from earlier work
[3] = system: neutrophils; experiment: Neutrophil chemotaxis across bare filter insert (Transwell) to LTB4; type: cell-based, mouse
Description: Neutrophil chemotaxis experiments were conducted as described [Roth et al., J. Immunoi. Methods, 188:97-116 (1995)]. Briefly, purified human neutrophils were incubated with DMSO (0.3% v/v) or an inhibitor in accordance with the invention reconstituted in DMSO (0.3%) for 20 minutes at room temperature. Cells were added to bare filter inserts (Transwell™ 5 μm pore size; Corning Costar, Cambridge, Mass.), that were placed into wells containing chemoattractants or control medium of a Ultra low 24-well cluster plate, and incubated for 1 hour at 37° C. in a 5% CO2 humidified environment. The number of neutrophils that migrated into the bottom well was determined by FACScan (Becton Dickinson, San Jose, Calif.). Results were expressed as percent neutrophil migration relative to the control (medium without inhibitor).
A dose response curve was generated to determine the concentration of LTB4 necessary to support half-maximal migration across a bare filter insert. Maximal transmigration for neutrophils purified from mouse bone marrow occurred between 100 to 250 nM of LTB4. […] Tager et al., J Exp. Med., 192:439-46 (2000). Treatment of WT neutrophils with 2 μM inhibitor in accordance with the invention diminished migration in response to LTB4 (30 nM) by ˜30%, a value equivalent to that observed for PI3Kδ deficient cells.

[4] = system: ICAM-1; experiment: LTB4-triggered firm adhesion of neutrophils to CHO cells transfected with human ICAM-1; type: cell-based; details: 2 μM; LTB4 0.1 μM; wall shear stresses 2 and 4 dyn/cm^2
Description: Purified neutrophils (2×10^6/ml in HBSS buffer containing 2 mM MgCl2) were incubated with 2 μM of a compound in accordance with the invention prior to conducting the adhesion assays. […] Treated neutrophils were then stimulated with LTB4 (0.1 μM) and allowed to bind in stasis to CHO cells transfected with human ICAM-1 before subjecting them to physiological wall shear stresses of 2 and 4 dyn/cm^2. ICAM-1 expression on these cells was confirmed by flow cytometry using mAb R 1/1 (fluorescence intensity>103, data not shown). […] For example, more than 80% of LTB4-stimulated neutrophils remained bound to the ICAM-1 substrate in the presence or absence of an inhibitor in accordance with the invention. The percentage of cells that remained adherent after 20 seconds (s) at each wall shear stress was determined by off-line video analysis.

[5] = system: neutrophils on TNFα-inflamed venular endothelium of the cremaster muscle; experiment: Intravital microscopy of TNFα-inflamed cremaster muscle venules, GFP+/− mice; type: in vivo
Text: To determine if PI3Kδ contributes to leukocyte accumulation in inflamed tissues, the ability of leukocytes to interact with cytokine-stimulated endothelial cells in microvessels in the cremaster muscle of mice and to transmigrate was examined. Animals heterozygous for GFP expression under the murine lysozyme M locus control, which rendered neutrophils and other granulocytes visible by epifluorescence intravital microscopy, were used to quantitate leukocyte interactions with the vessel wall.
Mice in which green fluorescent protein (GFP) was knocked into the lysozyme M locus or the PI3Kδ catalytic subunit was deleted were generated as previously described [Faust et al., Blood, 96:719-726 (2000); and, Clayton et al., J. Exp. Med., 196:753-763 (2002)]. Subsequent matings were performed to yield mice that were heterozygous for GFP expression but deficient in PI3Kδ expression (mixed 129/Sv-C57BL/6 background) (GFP^+/−/PI3Kδ^−/− animals). All animals were handled in accordance with policies administered by institutional Animal Care and Use Committees.
The surgical preparation of animals for all in vivo studies was performed using standard techniques [see, e.g., Coxon, Immunity, 5:653-666 (1996)]. The cremaster muscle (CM) in GFP^+/− or GFP^+/−/PI3Kδ^−/− animals was inflamed with an intrascrotal injection of murine recombinant TNFα (20 ng/mouse). 2.5 hours after TNFα injection, the tissue was surgically exposed and positioned over a circular glass coverslip (25 mm) on a custom-built plexiglass stage for viewing. The stage was then placed on an intravital microscope (IV-500; Mikron instruments, San Diego, Calif.) equipped with a silicon-intensified camera (VE1000SIT; Dage mti, Michigan City, Ind.) and the tissue kept moist by superfusion with thermo-controled (37° C.) bicarbonate-buffered saline. GFP-expressing cells (predominantly neutrophils, also including fewer monocytes) were visualized through X20 or X40 water immersion objectives (Acroplan, Carl Zeiss Inc.) by epifluorescence from a Xenon arc stroboscope (Chadwick Helmuth, El Monte, Calif.) as they passed through the venous microcirculation of the cremaster muscle. Rolling fraction was defined as the percentage of cells that interact with a given venule in the total number of cells that enter that venule during the same time period. The sticking fraction was defined as the number of rolling cells that became stationary for >30 s post-superfusion of the CM with LTB4 (0.1 μM). Venular shear rates were determined from optical Doppler velocimeter measurements of centerline erythrocyte velocity. The extent of leukocyte transmigration was evaluated at 30 and 60 min after application of LTB4. Video images were recorded using a Hi8 VCR (Sony, Boston, Mass.), and analysis of performed using a PC-based image analysis system [Doggett et al., Biophys. J., 83:194-205 (2002)].
In order for leukocyte transmigration to occur, engagement of the leukocyte integrins with ICAMs expressed on venular endothelium (“firm adhesion”) is necessary for leukocytes to stably adhere to the vessel wall (in addition to the requirement for selectin-mediated tethering and rolling) [Dunne et al., Blood, 99:336-341 (2002)]. To determine the role of PI3Kδ in firm adhesion, the ability of leukocytes rolling on inflamed venular endothelium to undergo integrin-mediated firm adhesion in response to an activating stimulus was investigated in vivo.
These experiments were performed in accordance with the procedures described in Example 2.

[6] = Plasma concentration of the compound after oral administration; type: in vivo, mice; details: when LTB4 was applied
Description: Animals received a single oral dose of either a compound in accordance with the invention (25 mg/kg for mice and 20 or 40 mg/kg for rats) or vehicle (PEG-400). Blood samples were subsequently drawn at indicated time points and plasma concentration of the compound determined after liquid-liquid extraction by LC/MS. The lower quantification limit was 50 ng/ml. Plasma samples from control animals (vehicle alone) were used as the blank control.

Chain of P70S6K (P23443 whole entry): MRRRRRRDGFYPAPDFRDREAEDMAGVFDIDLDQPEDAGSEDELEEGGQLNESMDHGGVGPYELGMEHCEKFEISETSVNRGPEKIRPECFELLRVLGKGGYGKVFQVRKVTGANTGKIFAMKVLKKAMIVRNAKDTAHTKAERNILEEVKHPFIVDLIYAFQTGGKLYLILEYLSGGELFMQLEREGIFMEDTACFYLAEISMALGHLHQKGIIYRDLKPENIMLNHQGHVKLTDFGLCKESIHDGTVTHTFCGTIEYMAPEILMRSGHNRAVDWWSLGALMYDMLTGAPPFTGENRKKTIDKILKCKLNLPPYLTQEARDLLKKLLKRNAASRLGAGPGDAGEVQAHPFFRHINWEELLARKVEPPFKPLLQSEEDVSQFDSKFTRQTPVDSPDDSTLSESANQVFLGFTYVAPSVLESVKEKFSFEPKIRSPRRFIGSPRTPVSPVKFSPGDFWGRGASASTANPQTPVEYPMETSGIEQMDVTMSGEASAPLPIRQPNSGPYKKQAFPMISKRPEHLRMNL
Chain of p38 MAPK (Q16539 whole entry): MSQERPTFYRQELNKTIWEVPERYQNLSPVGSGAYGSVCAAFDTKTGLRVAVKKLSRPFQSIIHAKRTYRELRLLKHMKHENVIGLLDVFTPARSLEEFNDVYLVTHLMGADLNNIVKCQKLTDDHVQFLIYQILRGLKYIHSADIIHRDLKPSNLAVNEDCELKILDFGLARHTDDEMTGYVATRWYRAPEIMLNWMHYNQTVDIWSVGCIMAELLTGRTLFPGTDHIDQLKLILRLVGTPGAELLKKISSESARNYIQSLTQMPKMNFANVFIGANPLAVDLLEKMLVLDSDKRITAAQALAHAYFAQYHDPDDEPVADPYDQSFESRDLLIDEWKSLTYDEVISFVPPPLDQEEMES

Cc1ccccc1-n1c(Cn2cnc3c(N)ncnc32)nc2cccc(C)c2c1=O
Activity (% of control) ± SD [1]: 98.5 ± 0.7 % of control
Activity (% of control) ± SD [2]: No inhibition*
diminished migration in response to LTB4 ([3]; 2 μM, LTB4 30 nM, WT neutrophils): ~30%
chemotaxis of cells lacking PI3Kδ ([3]; identical concentration (2 μM), PI3Kδ deficient cells): no further effects on chemotaxis
LTB4-stimulated neutrophils remaining bound to the ICAM-1 substrate [4]: more than 80%
mean rolling velocities of neutrophils on TNFα-inflamed venules ([5]; GFP+/− animals): 40.5±12.5 μm/s
LTB4-induced migration of neutrophils across inflamed microvessels ([5]; LTB4 superfusion of cremaster muscle): diminished
integrin-mediated firm adhesion of rolling leukocytes in vivo ([5]; inflamed cremaster muscle superfused with LTB4): rapidly transitioned from rolling to firm adhesion
time the majority of neutrophils rolled before releasing from the vessel wall ([5]; inhibitor-treated GFP+/− animals): < 2 s
interactions between circulating granulocytes and venular endothelium ([5]; oral, one hour prior to intrascrotal TNFα, GFP+/− animals, vs vehicle): significantly impaired
decrease in the number of fluorescent cells that attach and roll ([5]; vs vehicle treated mice): > 50%
inhibitor concentration (mean plasma) [6]: 12.8 ± 3.7 µM
